Series [1] is described as follows: Stability in human plasma (PS), LC-MS/MS. Type of series: in vitro ADME. As to conditions: for half-life: read-out: Human PS t1/2. The procedure:
(§1) Metabolism of compound(s) to release (+)-α-DTHBZ was determined by the half-life (t1/2) and intrinsic clearance (CIint) in human plasma (PS) and liver microsomes (LM) using tandem mass spectrometry (LC-MS/MS).

Series [2] is described as follows: Metabolic stability in human liver microsomes (LM), LC-MS/MS (first table). Type of series: in vitro ADME. Particulars: for microsomal CLint: Table 1, read-out: Human LM CLint (μL/min/mg protein); for half-life: Table 1, read-out: Human LM t1/2. The procedure: as §1

This note sets out measurements from patent US20210087191A1, “SUBSTITUTED 3-ISOBUTYL-9,10-DIMETHOXY-1,3,4,6,7,11B-HEXAHYDRO-2H-PYRIDO[2,1-a]ISOQUINOLIN-2-OL COMPOUNDS, THEIR [sequence], AND USE THEREOF” (DISPERSOL TECHNOLOGIES, LLC, priority 2020, published 2021).

Structures are written as SMILES. Counter-ions that a name gives are not always drawn.

In the case of `COc1cc2c(cc1OC)[C@@H]1C[C@H](OC(=O)/C=C/C(=O)O)[C@@H](CC(C)C)CN1CC2` (stereo in doubt) [Example 3, (2E)-4-[[(2S,3S,11bS)-9,10-dimethoxy-3-(2-methylpropyl)-1H,2H,3H,4H,6H,7H,11bH-pyrido[2,1-a]isoquinolin-2-yl]oxy]-4-oxobut-2-enoic acid], in series [1], the half-life worked out at 763 min. Besides, in series [2] (Table 1), the “Human LM t1/2 (min)” value is “∞”.
`COc1cc2c(cc1OC)[C@H]1C[C@@H](OC(=O)/C=C/C(=O)O[C@@H]3C[C@@H]4c5cc(OC)c(OC)cc5CCN4C[C@H]3CC(C)C)[C@H](CC(C)C)CN1CC2` [Example 18, bis[(2R,3R,11bR)-9,10-dimethoxy-3-(2-methylpropyl)-1H,2H,3H,4H,6H,7H,11bH-pyrido[2,1-a]isoquinolin-2-yl] (2E)-but-2-enedioate]: the figures for the half-life in series [1] and in series [2] were more than 663 min and 1250 min, respectively. In series [2], the microsomal CLint was found to be 1.11 µL/min/mg.
For `COc1cc2c(cc1OC)[C@@H]1C[C@H](OC(=O)C(=O)O)[C@@H](CC(C)C)CN1CC2` (stereo in doubt) [Example 1, (2S,3S,11bS)-9,10-dimethoxy-3-(2-methylpropyl)-1H,2H,3H,4H,6H,7H,11bH-pyrido[2,1-a]isoquinolin-2-yl hydrogen oxalate], the “Human PS t1/2 (min)” value in series [1] is given as “∞”. For the same molecule, in series [2], the microsomal CLint amounted to 3.24 µL/min/mg and the half-life came to 415 min.
Turning to `CCNC(=O)O[C@@H]1C[C@@H]2c3cc(OC)c(OC)cc3CCN2C[C@H]1CC(C)C` [Example 21, (2R,3R,11bR)-9,10-dimethoxy-3-(2-methylpropyl)-1H,2H,3H,4H,6H,7H,11bH-pyrido[2,1-a]isoquinolin-2-yl N-ethylcarbamate], the results for the half-life in series [1] and in series [2] were more than 20400 min and 483 min, respectively. For the same molecule, the microsomal CLint in series [2] came to 1.67 µL/min/mg.
Consider `COc1cc2c(cc1OC)[C@H]1C[C@@H](OC(=O)OCOC(=O)CC(C)C)[C@H](CC(C)C)CN1CC2` [Example 26, [([[(2R,3R,11bR)-9,10-dimethoxy-3-(2-methylpropyl)-1H,2H,3H,4H,6H,7H,11bH-pyrido[2,1-a]isoquinolin-2-yl]oxy]carbonyl)oxy]methyl 3-methylbutanoate], for which, in series [1], the half-life was 83.3 min. Moreover, in series [2], the microsomal CLint was found to be 1380 µL/min/mg and the half-life was 0.5 min.
As for `COc1cc2c(cc1OC)[C@H]1C[C@@H](OC(=O)/C=C\C(=O)OC(C)C)[C@H](CC(C)C)CN1CC2` [Example 10, (2R,3R,11bR)-9,10-dimethoxy-3-(2-methylpropyl)-1H,2H,3H,4H,6H,7H,11bH-pyrido[2,1-a]isoquinolin-2-yl 1-isopropyl (2Z)-but-2-enedioate], the half-life in series [1] was more than 226000 min. In series [2], the microsomal CLint is 104 µL/min/mg and the half-life was determined as 6.67 min.
On the same counts, the results for `COc1cc2c(cc1OC)[C@H]1C[C@@H](OC(=O)/C=C\C(=O)O)[C@H](CC(C)C)CN1CC2` [Example 4, (2Z)-4-[[(2R,3R,11bR)-9,10-dimethoxy-3-(2-methylpropyl)-1H,2H,3H,4H,6H,7H,11bH-pyrido[2,1-a]isoquinolin-2-yl]oxy]-4-oxobut-2-enoic acid] are 3300 min, less than 3.4 µL/min/mg and more than 204 min.
On the same counts, the results for `COc1cc2c(cc1OC)[C@H]1C[C@@H](OC(=O)/C=C\C(=O)O[C@@H]3C[C@@H]4c5cc(OC)c(OC)cc5CCN4C[C@H]3CC(C)C)[C@H](CC(C)C)CN1CC2` [Example 19, bis[(2R,3R,11bR)-9,10-dimethoxy-3-(2-methylpropyl)-1H,2H,3H,4H,6H,7H,11bH-pyrido[2,1-a]isoquinolin-2-yl] (2Z)-but-2-enedioate] are 8020 min, 0.84 µL/min/mg and more than 821 min.
On the same counts, the results for `COc1cc2c(cc1OC)[C@H]1C[C@@H](OC(=O)C(=O)O[C@@H]3C[C@@H]4c5cc(OC)c(OC)cc5CCN4C[C@H]3CC(C)C)[C@H](CC(C)C)CN1CC2` [Example 20, Bis[(2R,3R,11bR)-9,10-dimethoxy-3-(2-methylpropyl)-1H,2H,3H,4H,6H,7H,11bH-pyrido[2,1-a]isoquinolin-2-yl] oxalate] are 80.8 min, 3.83 µL/min/mg and 192 min.
In the case of `COc1cc2c(cc1OC)[C@H]1C[C@@H](OC(=O)/C=C/C(=O)OC(C)C)[C@H](CC(C)C)CN1CC2` [Example 8, (2R,3R,11bR)-9,10-dimethoxy-3-(2-methylpropyl)-1H,2H,3H,4H,6H,7H,11bH-pyrido[2,1-a]isoquinolin-2-yl 1-isopropyl (2E)-but-2-enedioate], the half-life is more than 709 min in series [1] and 7.07 min in series [2]. Further, the microsomal CLint in series [2] was 98 µL/min/mg.
`COc1cc2c(cc1OC)[C@H]1C[C@@H](OC(=O)/C=C\C(=O)N[C@@H](Cc3ccccc3)C(=O)O)[C@H](CC(C)C)CN1CC2` [Example 14, (2S)-2-[(2Z)-4-[[(2R,3R,11bR)-9,10-dimethoxy-3-(2-methylpropyl)-1H,2H,3H,4H,6H,7H,11bH-pyrido[2,1-a]isoquinolin-2-yl]oxy]-4-oxobut-2-enamido]-3-phenylpropanoic acid]: the half-life in series [1] came out at 12 min. In addition, in series [2], the microsomal CLint is 2.91 µL/min/mg and the half-life came to 249 min.
On the same counts, the results for `COc1cc2c(cc1OC)[C@H]1C[C@@H](OC(=O)NC(C)C)[C@H](CC(C)C)CN1CC2` [Example 22, (2R,3R,11bR)-9,10-dimethoxy-3-(2-methylpropyl)-1H,2H,3H,4H,6H,7H,11bH-pyrido[2,1-a]isoquinolin-2-yl N-isopropylcarbamate] are more than 3930 min, 5.15 µL/min/mg and 139 min.
Consider `COc1cc2c(cc1OC)[C@H]1C[C@@H](OC(=O)OCOC(=O)C(C)C)[C@H](CC(C)C)CN1CC2` [Example 25, [([[(2R,3R,11bR)-9,10-dimethoxy-3-(2-methylpropyl)-1H,2H,3H,4H,6H,7H,11bH-pyrido[2,1-a]isoquinolin-2-yl]oxy]carbonyl)oxy]methyl 2-methylpropanoate], for which the half-life in series [1] was 119 min.
On the same count and under the same terms, the value for `CCC(=O)OCOC(=O)O[C@@H]1C[C@@H]2c3cc(OC)c(OC)cc3CCN2C[C@H]1CC(C)C` [Example 24, [([[(2R,3R,11bR)-9,10-dimethoxy-3-(2-methylpropyl)-1H,2H,3H,4H,6H,7H,11bH-pyrido[2,1-a]isoquinolin-2-yl]oxy]carbonyl)oxy]methylpropanoate] was 85.4 min.
Consider `COc1cc2c(cc1OC)[C@H]1C[C@@H](OC(=O)/C=C/C(=O)N[C@H](C(=O)O)C(C)C)[C@H](CC(C)C)CN1CC2` [Example 11, (2S)-2-[(2E)-4-[[(2R,3R,11bR)-9,10-dimethoxy-3-(2-methylpropyl)-1H,2H,3H,4H,6H,7H,11bH-pyrido[2,1-a]isoquinolin-2-yl]oxy]-4-oxobut-2-enamido]-3-methylbutanoic acid], for which the half-life in series [1] is 13.5 min; in series [2], 177 min. The microsomal CLint in series [2] was 4.24 µL/min/mg.
